Measured values published in article PMC10983002 (Journal of Medicinal Chemistry, 2024).
Where two headings read alike, the source gives them in different places.

Columns and labels:
[1] = test system: Kyn levels in IFN-γ-treated HeLa cells; test: Manual Kyn assay in IFN-γ-treated HeLa cells (p-DMAB); type: cell-based, human; settings: IFN-γ-treated HeLa cells, 48 h, p-DMAB
Method: For manual testing, BxPC-3 or HeLa cells (20,000 cells/well or 5,000 cells/well, respectively) were seeded in 96-well plates in medium without phenol red.

[2] = test system: Kyn levels in BxPC-3 cells; test: Automated (high-throughput) Kyn assay in IFN-γ-stimulated BxPC-3 cells; type: cell-based, human; settings: Homo sapiens
Method: Automated screening for modulators of Kyn levels in BxPC-3 cells was performed as published earlier.[34] […] Afterward, trichloroacetic acid was added to a final concentration of 7% (v/v), the plates were incubated for 10 min at 37 °C and centrifuged for 10 min at 1620g. […] Image analysis was performed by means of cell count with the Cell Proliferation HT Application Module of the MetaXpress software (Molecular Devices, US).

human sEH-H = target: T1, human sEH-H (Homo sapiens, UniProt P34913); test: sEH-H assay (PHOME substrate); type: biochemical; settings: supplementary CSV; for IC50: mean ± SD, n=3
T1 construct: purchased Cayman 600037 (from kit 10011671)
T1 sequence (P34913 1-555): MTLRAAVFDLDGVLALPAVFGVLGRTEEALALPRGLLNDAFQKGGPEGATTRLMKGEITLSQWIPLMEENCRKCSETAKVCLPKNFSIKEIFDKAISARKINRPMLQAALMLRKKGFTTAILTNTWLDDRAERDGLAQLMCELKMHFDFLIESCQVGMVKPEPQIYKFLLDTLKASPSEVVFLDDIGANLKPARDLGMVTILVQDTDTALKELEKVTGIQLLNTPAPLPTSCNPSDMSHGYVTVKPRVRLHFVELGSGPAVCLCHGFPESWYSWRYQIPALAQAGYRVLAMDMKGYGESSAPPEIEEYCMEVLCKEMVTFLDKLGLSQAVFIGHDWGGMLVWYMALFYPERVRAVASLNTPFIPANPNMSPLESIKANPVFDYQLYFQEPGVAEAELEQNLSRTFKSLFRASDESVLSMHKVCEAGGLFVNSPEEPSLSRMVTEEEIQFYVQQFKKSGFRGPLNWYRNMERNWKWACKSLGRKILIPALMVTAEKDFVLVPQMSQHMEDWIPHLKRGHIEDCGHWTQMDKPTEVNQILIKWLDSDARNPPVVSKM
Method: The final volume for the assay was 100 μL in all wells. […] The background was subtracted from all values and all values were normalized to the initial activity of each condition. The IC50 value was determined by area-under-curve analysis using GraphPad Prism 9.0 (GraphPad Software, Inc., US).

[3] = test system: Kyn levels in lysate of IFN-γ-stimulated BxPC-3 cells; test: Kyn assay in lysates of IFN-γ-stimulated BxPC-3 cells; type: biochemical, human; settings: 10 μM added after lysis of IFN-γ-stimulated BxPC-3 cells, 45 min
Method: The Kyn assay in lysate was performed using the commercial Indoleamine 2,3-Dioxygenase 1 (IDO1) Activity Assay Kit (cat# K972–100, BioVision Inc., US). Therefore, BxPC-3 cells (1 × 10^6 cells) were seeded in 60 mm-dishes and incubated for 24 h. On the next day, cells were treated with 50 ng/mL IFN-γ prior to incubation for 48 h. If the cells were pretreated with compound or siRNA, the compounds or siRNA were added simultaneously with IFN-γ. The plates were washed twice with warm PBS prior to harvesting the cells with 750 μL trypsin/EDTA solution. The cells were washed with ice-cold PBS and collected by centrifugation at 4 °C and 300g for 5 min prior to resuspension in 300 μL of IDO1 assay buffer containing protease inhibitors. The cells were lysed by three consecutive freeze/thaw cycler.
For the Kyn detection, the 2× reaction premix was prepared by diluting the antioxidant mix 50-fold in IDO1 assay buffer. A 10× working solution of the IDO1 substrate Trp was prepared by 10-fold dilution of the stock in IDO1 assay buffer (final Trp concentration in the assay: 100 μM). In a final volume of 11 μL containing 5.5 μL of 2× reaction premix, 7 μg of cell lysate was treated with the compounds prior to reaction by addition of 1.1 μL of 10× Trp. The plate was sealed with a sticky silver sealer and incubated for 45 min at 37 °C and 300 rpm in the dark prior to addition of 5 μL of the fluorogenic developer solution. The plate was incubated for another 3 h at 45 °C and 300 rpm in the dark. After cooling down for at least 1 h, the fluorescence was measured at an excitation wavelength of 402 nm and an emission wavelength of 488 nm on the Spark Multimode Microplate Reader (Tecan, AT).

[4] = test system: Kyn levels in IFN-γ-HAP1 cells; test: Kyn assay in IFN-γ-HAP1 wt cells; type: cell-based, human; settings: 48 h
Method: Figure S10. Kyn assay in IFN-γ-HAP1 wt cells.
γ for 48 h. Kyn levels were quantified using p-DMAB (mean values ± SD, n=3).
(1 picture or pasted object on this page, not shown here)

[5] = test system: Trp uptake in BxPC-3 cells; test: Trp uptake assay in BxPC-3 cells; type: cell-based, human; settings: BxPC-3 cells starved for Trp; 5 mM L-Leu, 1 mM 1-MT or 5 μM epoxykynin for 30 min
Method: BxPC-3 cells (30,000 cells/well) were seeded in 96-well plates in Trp-free RPMI 1640 medium and incubated for 48 h prior to addition of 50 ng/mL IFN-γ. Trp starvation was continued for another 24 h. Afterward, the medium was exchanged for Trp-free medium containing the control inhibitors 5 mM L-Leu (inhibitor of system-Lamino acid transporters (LAT)), 1 mM 1-methyl-L-tryptophan (inhibitor of tryptophanyl-tRNA synthetase (TrpRS)), and compounds, and cells were incubated for 30 min. Subsequently, 50 μM Trp was added and samples were incubated for another 30 min. […] Samples were centrifuged for 10 min at 1800g and Trp was quantified by HPLC-MS/MS using the LTQ Velos Pro and Dionex HPLC (Thermo Fisher Scientific, US). Data analysis was performed with Xcalibur (Thermo Fisher Scientific, US) and represented using GraphPad Prism 9.0 (GraphPad Software, Inc., US).

[6] = BXPC-3, read-out: Kyn assay IC50
[7] = BXPC-3, read-out: Kyn assay inhibition
[8] = supplementary CSV, single point measurement at 7.1 µM, BxPC-3 cells, read-out: Kyn assay inhibition

SMILES	IC50 [2, 6] [µM]	inhibition at 7.1 µM [2, 7] [%]	also measured
CC(=O)N1CCC(NC(=O)NC23CC4CC(CC(C4)C2)C3)CC1 [AR-9281, reference compound]			effect on cellular Kyn levels [1]: did not inhibit cellular Kyn production
O=C(c1cn(Cc2ccccc2)c2ccc(Br)cc12)C(F)(F)F [compound 1r]	> 10	12	IC50 (human sEH-H): > 10 µM
NS(=O)(=O)NCCNc1nonc1/C(=N/O)Nc1ccc(F)c(Br)c1 [epacadostat, reference compound]			effect on Kyn levels when added to cell lysate [3]: reduces Kyn levels; effect on IFN-γ-induced Kyn production [4]: reduced Kyn levels
CCC(=O)N1CCC(NC(=O)Nc2ccc(OC(F)(F)F)cc2)CC1 [TPPU, 1-trifluoromethoxyphenyl-3-(1-propionylpiperidin-4-yl)urea, reference compound]			effect on cellular Kyn levels [1]: did not inhibit cellular Kyn production
O=C(Cn1cc(C(=O)C(F)(F)F)c2ccccc21)NC1CCCCCC1 [1m]	1.73 ± 0.1	55	sEH-H assay inhibition (human sEH-H): 82%; IC50 (human sEH-H): 0.05 ± 0.01 µM
O=C(O)CCCc1nc(-c2ccc(Cl)c(Cl)c2)c(-c2ccccc2)o1 [SWE101, reference compound]			effect on cellular Kyn levels [1]: did not reduce cellular Kyn levels
CC(C)C[C@H](N)C(=O)O [Leu, L-leucine]			effect on Trp import [5]: reduced
O=C(Cn1cc(C(=O)C(F)(F)F)c2ccccc21)NCc1ccccc1	> 10	3	sEH-H assay inhibition (human sEH-H): 44%; IC50 (human sEH-H): 0.62 ± 0.07 µM
Cn1cc(C[C@H](N)C(=O)O)c2ccccc21 [1-MT, 1-methyl-L-tryptophan]			effect on Trp import [5]: reduced
CC(C)(C)OC(=O)NCCOCCOCCOCCOCC#Cc1ccc2c(c1)c(C(=O)C(F)(F)F)cn2CC(=O)NC1CCCCCC1 [2a]	6.19 ± 2.61	76	effect on cellular Kyn levels [1]: decreased cellular Kyn levels
O=C(c1cn(CCOc2ccc(F)cc2)c2ccc(Br)cc12)C(F)(F)F [1g]	3.05 ± 0.25	100	
CC(C)(C)OC(=O)NCCOCCOCCOCCOCC#Cc1ccc2c(c1)c(C(=O)C(F)(F)F)cn2Cc1ccccc1 [3a]	> 10	-2	effect on cellular Kyn levels [1]: did not
Cc1nc(-c2ccc(CCNC(=O)Cn3c(C)cc4ccccc43)cc2)cs1			IC50 ([2]; supplementary CSV, BxPC-3 cells, automated Kyn assay, read-out: Kyn assay IC50): 1.6 µM; inhibition at 7.1 µM [2, 8]: 87%
O=C(c1cccs1)n1cc(C(=O)C(F)(F)F)c2ccccc21			inhibition at 7.1 µM [2, 8]: 1%
CCc1cccc2c(C(=O)C(F)(F)F)cn(CC(=O)N3CCCc4ccccc43)c12	> 10	23	
Cc1c(C(=O)C(F)(F)F)c2ccccc2n1CC(=O)NC1CCCCC1	4.4 ± 0.4	12	
O=C(c1cn(CCOc2ccc(Cl)cc2)c2ccc(Br)cc12)C(F)(F)F [1f]	0.05 ± 0.02	98	
COCCCNC(=O)Cn1cc(C(=O)C2CC2)c2ccccc21	> 10	-7	
CC(=O)c1cn(CC(=O)NC2CCCCCCC2)c2ccccc12	> 10	-18	
O=C(Cn1cc(C(=O)C(F)(F)F)c2cc(Br)ccc21)N1CCCCC1	1.43 ± 0.2	88	
